Measured values: ChEMBL document CHEMBL3407496, “Chalcones and their therapeutic targets for the management of diabetes: structural and pharmacological perspectives” (Eur J Med Chem, 2015)
Values belong to the molecule of their own block, whether it stands above or below them.

What was measured:
[1] = biological target: Aldo-keto reductase family 1 member B1 (Homo sapiens) (UniProt P15121); assay: Inhibition of aldose reductase (unknown origin) at 10 ug/ml
[2] = tested on: Oryctolagus cuniculus; assay: Reduction of blood glucose in normoglycemic rabbit at 50 mg/kg, po after 4 hrs; format: functional; design: scale not given: the % may be the effect or the level left
[3] = biological target: T1, Tyrosine-protein phosphatase non-receptor type 1 (Homo sapiens, UniProt P18031); assay: Competitive inhibition of PTP1B (unknown origin) using p-nitrophenyl phosphate as substrate
T1 sequence (P18031 whole entry): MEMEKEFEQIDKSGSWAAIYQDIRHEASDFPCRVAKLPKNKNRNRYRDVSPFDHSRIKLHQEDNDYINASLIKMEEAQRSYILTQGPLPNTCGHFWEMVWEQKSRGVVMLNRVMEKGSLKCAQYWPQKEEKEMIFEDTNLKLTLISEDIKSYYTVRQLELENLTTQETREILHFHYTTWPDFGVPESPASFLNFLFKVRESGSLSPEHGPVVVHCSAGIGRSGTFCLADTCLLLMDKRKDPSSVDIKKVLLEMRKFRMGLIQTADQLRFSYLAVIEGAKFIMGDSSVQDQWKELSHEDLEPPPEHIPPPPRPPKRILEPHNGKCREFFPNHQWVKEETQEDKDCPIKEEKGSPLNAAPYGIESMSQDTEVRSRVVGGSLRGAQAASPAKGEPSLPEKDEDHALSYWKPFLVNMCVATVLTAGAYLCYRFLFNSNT

[4] = biological target: Aldo-keto reductase family 1 member B1 (Homo sapiens) (UniProt P15121); assay: Inhibition of ALR2 (unknown origin); conditions: concentration not given here
[5] = species on record: Homo sapiens; assay: Inhibition of ALR1 (unknown origin); conditions: concentration not given here
[6] = Non-competitive inhibition of alpha-glucosidase (unknown origin); design: species or system Homo sapiens
[7] = biological target: T1, Tyrosine-protein phosphatase non-receptor type 1; assay: Inhibition of PTP1B (unknown origin)
[8] = biological target: T2, Solute carrier family 2, facilitated glucose transporter member 4 (Rattus norvegicus) (UniProt P19357); assay: Induction of GLUT4 translocation in rat L6 cells assessed as increase in 2-deoxyglucose uptake relative to control; format: cell-based
T2 sequence (whole entry): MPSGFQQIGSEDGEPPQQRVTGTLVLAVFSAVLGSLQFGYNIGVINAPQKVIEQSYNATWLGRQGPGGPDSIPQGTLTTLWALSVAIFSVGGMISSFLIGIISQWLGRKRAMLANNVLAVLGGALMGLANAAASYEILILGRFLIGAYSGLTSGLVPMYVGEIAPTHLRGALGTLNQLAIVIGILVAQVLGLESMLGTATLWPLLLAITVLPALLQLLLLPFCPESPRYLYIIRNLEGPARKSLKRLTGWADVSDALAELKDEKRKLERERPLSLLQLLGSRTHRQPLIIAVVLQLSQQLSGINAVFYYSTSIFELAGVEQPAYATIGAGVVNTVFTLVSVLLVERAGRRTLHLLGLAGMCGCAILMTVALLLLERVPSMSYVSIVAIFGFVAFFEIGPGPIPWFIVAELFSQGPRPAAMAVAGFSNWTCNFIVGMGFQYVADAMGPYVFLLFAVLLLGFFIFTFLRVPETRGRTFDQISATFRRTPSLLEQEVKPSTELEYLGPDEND

inhibition [1]: 53.7%
Structure (SMILES): C=C(C)C(CC=C(C)C)Cc1c(O)cc(OC)c(C(=O)/C(O)=C/c2ccc(O)cc2O)c1O (stereo unspecified)

Structure (SMILES): Cc1ccc(S(=O)(=O)CC(=O)Cc2ccccc2C(=O)/C=C/c2ccc(Cl)cc2Cl)cc1
Activity [2]: 38.73%

IC50 [3]: 2.9 µM
Structure (SMILES): O=C(/C=C/c1ccco1)c1cccc(Cl)c1

inhibition [4]: 35% | inhibition [5]: 35%
Structure (SMILES): COc1ccc(/C=C/C(=O)c2ccc(OC)cc2O)cc1

inhibition [1]: 53.7%
Structure (SMILES): COc1cc(O)c(CC=C(C)C)c(O)c1C(=O)/C(O)=C/c1ccc(O)cc1

inhibition [1]: 53.7%
Structure (SMILES): C=C(C)C(CCC(C)(C)O)Cc1c(O)cc(OC)c(C(=O)/C(O)=C/c2ccc(O)cc2O)c1O (stereo unspecified)

IC50 [3]: 2.49 µM
Structure (SMILES): O=C(/C=C/c1ccco1)c1ccc(O)cc1O

IC50 [6]: 5.3 µM
Structure (SMILES): CC1(C)CCc2cc(C(=O)/C=C/c3ccc(O)c(O)c3)c(O)cc2O1

IC50 [6]: 5.3 µM
Structure (SMILES): CC1(C)CCc2cc(C(=O)/C=C/c3ccc(O)cc3)c(O)cc2O1

IC50 [6]: 5.3 µM
Structure (SMILES): CC(C)=CCc1cc(C(=O)/C=C/c2ccc(O)cc2)c(O)cc1O [BROUSSOCHALCONE B]

inhibition [1]: 55.6%
Structure (SMILES): CC(/C=C1\SC(=S)N(CC(=O)O)C1=O)=C\c1ccccc1

inhibition [4]: 35% | inhibition [5]: 35%
Structure (SMILES): CSc1ccc(/C=C/C(=O)c2ccc(O)cc2O)cc1

inhibition [4]: 35% | inhibition [5]: 35%
Structure (SMILES): O=C(/C=C/c1ccc(Cl)cc1)c1ccc(O)cc1O

IC50 [7]: 21.5 µM | IC50 [6]: 5.3 µM
Structure (SMILES): CC(C)=CCc1cc(C(=O)/C=C/c2ccc(O)c(O)c2)c(O)cc1O [BROUSSOCHALCONE A]

Ratio [8]: 1.9
Structure (SMILES): COc1ccc(C(=O)/C=C/c2ccc(O)cc2)c(O)c1CC=C(C)C

Ratio [8]: 1.9
Structure (SMILES): CC(C)=CCC/C(C)=C/Cc1c(O)ccc(C(=O)/C=C/c2ccc(O)cc2)c1O

IC50 [6]: 8.8 µM
Structure (SMILES): COc1cc(O)c(CC=C(C)C)c(O)c1C(=O)/C=C/c1ccc(O)cc1 [XANTHOHUMOL]
